The structures appear in SMILES notation.

These results are taken from patent publication US20110071171A1, “2H- PYRIMIDO [2, 1-B] QUINAZOLIN-2-ONE DERIVATIVES AND THEIR USE AS PLATELET ANTI-AGGREGATIVE AGENTS” (Shire LLC, priority 2008, published 2011).

Data set [1] deals with human phosphodiesterase III (PDE III). Kind of data set: PDE III inhibition. In kind it is biochemical. The conditions noted are these: more potent than anagrelide. The source says:
In early volunteer trials, the most frequently reported adverse effects AEs other than headache were palpitations, postural dizziness and nausea. During patient studies, the most frequently reported drug-related AEs were headache, palpitations, oedema/fluid retention, nausea/vomiting, diarrhea, dizziness and abdominal pain. These effects are all likely to arise from the secondary, cardiovascular pharmacology associated with anagrelide resulting from its inhibitory effects on human phosphodiesterase III (PDE III). […] Inhibition of myocardial PDE III leads to positive inotropy (increasing of the force of contractions of the heart), increased chronotropy (increase in heart rate), and peripheral vasodilatation. Such cardiovascular manifestations of this inhibition are typically seen with the classical positive inotropes, milrinone and enoximone, and exploited in the short-term acute treatment of congestive heart failure. However, in the treatment of a so-called silent disease (i.e., asymptomatic) such as ET, the cardiovascular side-effects of palpitations and tachycardia associated with anagrelide limit its utility and a significant proportion of patients—reportedly between 25 and 50%—fail to tolerate the drug during long term treatment.
The PDE III inhibitory properties of anagrelide are quite distinct from its platelet lowering anti-megakaryocytic effects. […]

Data set [2] can be described thus: Pharmacokinetics in humans. In kind it is in vivo, human. The conditions noted are these: after anagrelide treatment. The source says:
The PDE III inhibitory properties of anagrelide are quite distinct from its platelet lowering anti-megakaryocytic effects. Indeed studies have shown no correlation between potency as a PDE III inhibitor and anti-megakaryocytic effects for anagrelide and its principal pharmacologically active metabolite, 3-hydroxyanagrelide (3-OH anagrelide or 3-HA, formerly known as SPD604 or BCH24426). […] Anagrelide's active metabolite, 3-HA, is present in vivo in amounts greatly exceeding those of the parent drug with typical exposures being 2-3 fold greater. Thus by implication 3-OH anagrelide is likely to be a major contributor to the pharmacological actions of the drug.
The metabolism of anagrelide generally proceeds extremely rapidly, resulting in a less than ideal pharmacokinetic profile of the drug. […] This, combined with the side-effects profile, can lead to poor patient compliance. Furthermore, anagrelide undergoes a large first pass effect (>50%) leading to considerable intersubject variation in achieved exposures and, therefore, potentially variable drug response. Also, exposure to the pharmacologically active metabolite varies dramatically between patients since its formation is dependent on CYP1A, an enzyme whose expression is highly dependent on exposure to inducing agents such as cigarette smoke. […]

For data set [3], the system named is TPO-induced megakaryocytopoiesis. The conditions noted are these: cited from earlier work.
For data set [4] the following is noted: cited from earlier work.
Data set [5] concerns the target human phosphodiesterase III (PDE III). The conditions noted are these: cited from earlier work.
Data set [6] has as its system erythroid or myelomonocytic differentiation. The conditions noted are these: stimulated by erythropoietin or granulocyte-macrophage colony-stimulating factor; cited from earlier work.
A further data set concerns platelet count. The conditions noted are these: patients with thrombocythemia secondary to a myeloproliferative disorder; cited from earlier work.

With `O=C1NC2=Nc3ccc(Cl)c(Cl)c3CN2C1O` (stereo not shown) [3-hydroxyanagrelide], the “potency as PDE III inhibitor relative to anagrelide” value in data set [1] is “over 40 fold”. Besides, the “in vivo exposure relative to parent drug” value in data set [2] is on record as 2-3 fold. In addition, the “potency in inhibition of megakaryocytopoiesis relative to anagrelide” value in data set [3] is “no more potent than the parent drug”. In addition, in data set [4] (typical), the half-life is 2.5 h.
As for `O=C1CN2Cc3c(ccc(Cl)c3Cl)N=C2N1` [Anagrelide, 6,7-dichloro-1,5-dihydroimidazo[2,1-b]-quinazolin-2(3H)-one], the IC50 in data set [3] (in vitro, human megakaryocytopoiesis, read-out: estimated IC50, inhibition of TPO-induced megakaryocytopoiesis) was around 26 nM; in data set [5], around 29 nM. The “effect on erythroid or myelomonocytic differentiation” value in data set [6] is reported as “does not affect”. Further, the “time to complete response (platelet count ≦600×10^9/L)” value in the data set with platelet count is recorded as 4 to 12 weeks. For the same molecule, the first pass effect in data set [4] (in vivo) was above 50%.
Regarding `Cc1[nH]c(=O)c(C#N)cc1-c1ccncc1` [milrinone], the IC50 in data set [5] is 170 to 350 nM.
